According to article PMC4728505 (Marine Drugs, 2015):
*1 amine or outer side, *2 acyl side, *3 side chain or, on linkers, in order; H or OH if unused. Where a SMILES comes first, the peptide text is derived from it. Bridges are numbered along the chain shown (N, C = ends). [ ]: non-standard residue; d: D form. NMehTyr = CN[C@@H](CCc1ccc(O)cc1)C(=O)O; hTyr = N[C@@H](CCc1ccc(O)cc1)C(=O)O; NMeA = CN[C@@H](C)C(=O)O; CO = O=C([*:1])[*:2]

How the values were obtained:
protein phosphatase 1 = target: T1, protein phosphatase 1 (Oryctolagus cuniculus, UniProt P62139); assay: biochemical; type: biochemical; conditions: for PP1 inhibition (in words): acquired standards
T1 construct: purchased New England Biolabs

carboxypeptidase A [1] = target: T2, carboxypeptidase A (Bos taurus, UniProt P00730); assay: Carboxypeptidase A inhibition assay; type: biochemical; conditions: acquired standards
T2 construct: purchased Sigma-Aldrich C9268
T2 sequence (P00730 111-419): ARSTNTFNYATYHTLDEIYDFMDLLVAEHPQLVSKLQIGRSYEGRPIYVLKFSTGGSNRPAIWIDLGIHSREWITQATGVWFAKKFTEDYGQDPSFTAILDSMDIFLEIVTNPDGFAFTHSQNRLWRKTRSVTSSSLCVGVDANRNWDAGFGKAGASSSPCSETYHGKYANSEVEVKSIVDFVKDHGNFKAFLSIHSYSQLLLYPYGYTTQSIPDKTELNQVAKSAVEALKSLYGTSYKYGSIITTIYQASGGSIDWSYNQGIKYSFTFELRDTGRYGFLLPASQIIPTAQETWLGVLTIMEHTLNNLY
Description: The following reagents used for enzymatic assays were purchased from Sigma-Aldrich: trypsin (product number T0303), thrombin bovine plasma (T4648), elastase (E0258), carboxypeptidase A (C9268), aprotinine (A6103), N-p-tosyl-Gly-Pro-Lys-p-nitroanilide acetate salt (T6140), N-Succinyl-Gly-Gly-Phe-p-nitroanilide (S1899), 4-(2-Aminoethyl) benzenesulfonyl fluoride hydrochloride—AEBSF (A8456), elastatinal (E0881), N-Succinyl-Ala-Ala-Ala-p-nitroanilide (S4760), carboxypeptidase inhibitor—CPI (C0297), p-nitrophenyl phosphate disodium salt hexahydrate—p-NPP (71768), albumin bovine—BSA (A4503) and DL-dithiothreitol DTT (D0632).
APs were assayed for bioactivity by protein phosphatase 1, carboxypeptidase A, trypsin, elastase and thrombin inhibition assays as described in Mazur-Marzec et al. 2015 [50].

[2] = tested on: PP1 (from rabbit skeletal muscle); conditions: cited from earlier work; for PP1 inhibition reported (in words): PP1 from rabbit skeletal muscle
carboxypeptidase A [3] = target: T2, carboxypeptidase A; set-up: method as in PMID 11000037; conditions: read-out: CPA IC50 (converted); cited from earlier work

T1 sequence (P62139 whole entry): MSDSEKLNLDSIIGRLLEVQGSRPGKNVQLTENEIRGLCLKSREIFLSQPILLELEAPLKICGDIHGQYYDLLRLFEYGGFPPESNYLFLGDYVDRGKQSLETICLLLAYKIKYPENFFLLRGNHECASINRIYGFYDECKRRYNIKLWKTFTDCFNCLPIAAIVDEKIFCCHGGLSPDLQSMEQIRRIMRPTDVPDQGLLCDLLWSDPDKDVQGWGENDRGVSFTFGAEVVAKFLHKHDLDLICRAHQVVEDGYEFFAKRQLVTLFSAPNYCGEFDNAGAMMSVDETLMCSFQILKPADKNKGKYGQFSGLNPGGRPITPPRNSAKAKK

With `CC[C@H](C)[C@H](NC(=O)N[C@@H]1CCCCNC(=O)[C@H](Cc2ccccc2)NC(=O)[C@H](C)N(C)C(=O)[C@H](CCc2ccc(O)cc2)NC(=O)[C@H](C(C)C)NC1=O)C(=O)O` [Anabaenopeptin J] ({Ile-CO}-[dK]V[hTyr][NMeA]F; lactam 1-C) the “PP1 inhibition (in words)” value (protein phosphatase 1) was “showed inhibition” and the “Activity against CPA (in words)” value (carboxypeptidase A [1]) was “active”.

For `CC[C@H](C)[C@@H]1NC(=O)[C@H](NC(=O)N[C@@H](CCCNC(=N)N)C(=O)O)CCCCNC(=O)[C@H](Cc2ccccc2)NC(=O)[C@H](C)N(C)C(=O)[C@H](CCc2ccc(O)cc2)NC1=O` [anabaenopeptin F] ({Arg-CO}-[dK]I[hTyr][NMeA]F; lactam 1-C), the “PP1 inhibition reported (in words)” value [2] is listed as “inhibition”.

In the case of `CC[C@H](C)[C@@H]1NC(=O)[C@H](NC(=O)N[C@@H](Cc2ccc(O)cc2)C(=O)O)CCCCNC(=O)[C@H](Cc2ccccc2)NC(=O)[C@H](C)N(C)C(=O)[C@H](CCc2ccc(O)cc2)NC1=O` [Oscillamide Y, Tyr + CO[Lys + Ile + Hty + MeAla + Phe]] ({Tyr-CO}-[dK]I[hTyr][NMeA]F; lactam 1-C), the IC50 (protein phosphatase 1) is reported as 72.3 nM, the “PP1 inhibition (in words)” value (protein phosphatase 1) is reported as “showed inhibition” and the “Activity against CPA (in words)” value (carboxypeptidase A [1]) is reported as “active”. For the same molecule, the “PP1 inhibition (in words)” value ([2]; at 100 μg/mL) was “no effect”.

In the case of `CC(C)C1NC(=O)C(NC(=O)NC(Cc2ccc(O)cc2)C(=O)O)CCCCNC(=O)C(Cc2ccccc2)NC(=O)C(C)N(C)C(=O)C(CCc2ccc(O)cc2)NC1=O` (stereo not drawn) [Anabaenopeptin A, Tyr + CO[Lys + Val + Hty + MeAla + Phe]], the “PP1 inhibition (in words)” value (protein phosphatase 1) is listed as “showed inhibition” and the “PP1 inhibition reported (in words)” value [2] is listed as “inhibition”.

For `CSCC[C@@H]1NC(=O)[C@H](NC(=O)N[C@@H](CCCNC(=N)N)C(=O)O)CCCCNC(=O)[C@H](Cc2ccccc2)NC(=O)[C@H](C)N(C)C(=O)[C@H](CCc2ccc(O)cc2)NC1=O` [oscillamide B] ({Arg-CO}-[dK]M[hTyr][NMeA]F; lactam 1-C), the “PP1 inhibition reported (in words)” value [2] is given as “inhibition”.

In the case of `CC[C@H](C)[C@@H]1NC(=O)[C@H](NC(=O)N[C@@H](CCCNC(=N)N)C(=O)O)CCCCNC(=O)[C@H](Cc2ccccc2)NC(=O)[C@H](CCc2ccc(O)cc2)N(C)C(=O)[C@H](CCc2ccc(O)cc2)NC1=O` [Osc C] ({Arg-CO}-[dK]I[hTyr][NMehTyr]F; lactam 1-C), the “PP1 inhibition reported (in words)” value [2] is listed as “inhibition” and the IC50 [2] is listed as 900 nM.

For `CC[C@H](C)[C@@H]1NC(=O)[C@H](NC(=O)N[C@@H](CCCNC(=N)N)C(=O)O)CCCCNC(=O)[C@H]([C@@H](C)CC)NC(=O)[C@H](CCc2ccc(O)cc2)N(C)C(=O)[C@H](CCc2ccc(O)cc2)NC1=O` [anabaenopeptin H] ({Arg-CO}-[dK]I[hTyr][NMehTyr]I; lactam 1-C), the IC50 (carboxypeptidase A [3]) is listed as 3680 nM.

For `CC(C)[C@@H]1NC(=O)[C@H](NC(=O)N[C@@H](CCCNC(=N)N)C(=O)O)CCCCNC(=O)[C@H](Cc2ccccc2)NC(=O)[C@H](C)N(C)C(=O)[C@H](CCc2ccc(O)cc2)NC1=O` [Anabaenopeptin B] ({Arg-CO}-[dK]V[hTyr][NMeA]F; lactam 1-C), the “PP1 inhibition (in words)” value (protein phosphatase 1) is listed as “showed inhibition” and the “PP1 inhibition reported (in words)” value [2] is listed as “inhibition”.
